Source: PubChem BioAssay AID1963979 (Molecular Pharmacology Branch, DTP, NCI, 2024)

Tested on: 361931-004-R-J1-PDC multicell spheroid viability
Experiment: Anticancer human tumor 361931-004-R-J1-PDC patient-derived colon adenocarcinoma cell line growth inhibition [PI3K]
Details: for IC50: curve of first compound; for viability, T/C: stronger effect = lower value
Method in brief: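 Agents were dosed from a top concentration near clinical Cmax (otherwise 10 microM) in half-log decrements, alone or combined with PI3K inhibitors. The spheroids contain tumor cells plus endothelial (HUVEC) and MSC stroma; viability is measured.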

[1] = second compound 0.00316 µM, first compound 0.0316 µM
[2] = second compound 0.00316 µM, first compound 0.1 µM
[3] = second compound 0.01 µM, first compound 0.0316 µM
[4] = second compound 0.01 µM, first compound 0.1 µM
[5] = second compound 0.0316 µM, first compound 0.0316 µM
[6] = second compound 0.0316 µM, first compound 0.1 µM
[7] = second compound 0.1 µM, first compound 0.0316 µM
[8] = second compound 0.1 µM, first compound 0.1 µM
[9] = second compound 0.316 µM, first compound 0.0316 µM
[10] = second compound 0.316 µM, first compound 0.1 µM
[11] = second compound 1 µM, first compound 0.0316 µM
[12] = second compound 1 µM, first compound 0.1 µM
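Also: spheroids exposed to agents for seven days before readout.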

SMILES: CC(=O)c1c(C)c2cnc(Nc3ccc(N4CCNCC4)cn3)nc2n(C2CCCC2)c1=O + COc1c(OCCCN2CCOCC2)ccc2c3n(c(=NC(=O)c4cnc(N)nc4)nc12)CCN3
- IC50 (second compound 0.00316 µM): > 0.1 µM
- IC50 (second compound 0.01 µM): > 0.1 µM
- IC50 (second compound 0.0316 µM): > 0.1 µM
- IC50 (second compound 0.1 µM): > 0.1 µM
- IC50 (second compound 0.316 µM): < 0.000316 µM
- IC50 (second compound 1 µM): < 0.000316 µM
- viability, T/C (second compound 0.00316 µM, first compound 0.000316 µM): 99.6%
- viability, T/C (second compound 0.00316 µM, first compound 0.001 µM): 98.4%
- viability, T/C (second compound 0.00316 µM, first compound 0.00316 µM): 99.8%
- viability, T/C (second compound 0.00316 µM, first compound 0.01 µM): 97%
- viability, T/C [1]: 101%
- viability, T/C [2]: 89.2%
- viability, T/C (second compound 0.01 µM, first compound 0.000316 µM): 101%
- viability, T/C (second compound 0.01 µM, first compound 0.001 µM): 98.8%
- viability, T/C (second compound 0.01 µM, first compound 0.00316 µM): 103%
- viability, T/C (second compound 0.01 µM, first compound 0.01 µM): 91.5%
- viability, T/C [3]: 95.4%
- viability, T/C [4]: 83.4%
- viability, T/C (second compound 0.0316 µM, first compound 0.000316 µM): 93.3%
- viability, T/C (second compound 0.0316 µM, first compound 0.001 µM): 89.3%
- viability, T/C (second compound 0.0316 µM, first compound 0.00316 µM): 93.3%
- viability, T/C (second compound 0.0316 µM, first compound 0.01 µM): 87.4%
- viability, T/C [5]: 83.8%
- viability, T/C [6]: 62.9%
- viability, T/C (second compound 0.1 µM, first compound 0.000316 µM): 84.1%
- viability, T/C (second compound 0.1 µM, first compound 0.001 µM): 69.7%
- viability, T/C (second compound 0.1 µM, first compound 0.00316 µM): 73.7%
- viability, T/C (second compound 0.1 µM, first compound 0.01 µM): 72.8%
- viability, T/C [7]: 67.9%
- viability, T/C [8]: 53.1%
- viability, T/C (second compound 0.316 µM, first compound 0.000316 µM): 50.7%
- viability, T/C (second compound 0.316 µM, first compound 0.001 µM): 45.7%
- viability, T/C (second compound 0.316 µM, first compound 0.00316 µM): 42.3%
- viability, T/C (second compound 0.316 µM, first compound 0.01 µM): 41.8%
- viability, T/C [9]: 49.6%
- viability, T/C [10]: 38.1%
- viability, T/C (second compound 1 µM, first compound 0.000316 µM): 23.1%
- viability, T/C (second compound 1 µM, first compound 0.001 µM): 17.9%
- viability, T/C (second compound 1 µM, first compound 0.00316 µM): 16.4%
- viability, T/C (second compound 1 µM, first compound 0.01 µM): 19.7%
- viability, T/C [11]: 21%
- viability, T/C [12]: 15.2%

SMILES: CNC(=O)c1ccc(N2C(=S)N(c3ccc(C#N)c(C(F)(F)F)c3)C(=O)C2(C)C)cc1F + COc1c(OCCCN2CCOCC2)ccc2c3n(c(=NC(=O)c4cnc(N)nc4)nc12)CCN3
- IC50 (second compound 0.00316 µM): > 10 µM
- IC50 (second compound 0.01 µM): > 10 µM
- IC50 (second compound 0.0316 µM): > 10 µM
- IC50 (second compound 0.1 µM): > 10 µM
- IC50 (second compound 0.316 µM): 3.98 µM
- IC50 (second compound 1 µM): < 0.0316 µM
- viability, T/C [1]: 103%
- viability, T/C [2]: 102%
- viability, T/C (second compound 0.00316 µM, first compound 0.316 µM): 97.6%
- viability, T/C (second compound 0.00316 µM, first compound 1 µM): 103%
- viability, T/C (second compound 0.00316 µM, first compound 3.16 µM): 105%
- viability, T/C (second compound 0.00316 µM, first compound 10 µM): 88.5%
- viability, T/C [3]: 95.5%
- viability, T/C [4]: 101%
- viability, T/C (second compound 0.01 µM, first compound 0.316 µM): 98.8%
- viability, T/C (second compound 0.01 µM, first compound 1 µM): 98.2%
- viability, T/C (second compound 0.01 µM, first compound 3.16 µM): 98.7%
- viability, T/C (second compound 0.01 µM, first compound 10 µM): 86.2%
- viability, T/C [5]: 83.6%
- viability, T/C [6]: 92.3%
- viability, T/C (second compound 0.0316 µM, first compound 0.316 µM): 91.7%
- viability, T/C (second compound 0.0316 µM, first compound 1 µM): 90%
- viability, T/C (second compound 0.0316 µM, first compound 3.16 µM): 95.7%
- viability, T/C (second compound 0.0316 µM, first compound 10 µM): 88.4%
- viability, T/C [7]: 81.1%
- viability, T/C [8]: 82.5%
- viability, T/C (second compound 0.1 µM, first compound 0.316 µM): 76.1%
- viability, T/C (second compound 0.1 µM, first compound 1 µM): 81.5%
- viability, T/C (second compound 0.1 µM, first compound 3.16 µM): 86.1%
- viability, T/C (second compound 0.1 µM, first compound 10 µM): 65.8%
- viability, T/C [9]: 56.2%
- viability, T/C [10]: 53%
- viability, T/C (second compound 0.316 µM, first compound 0.316 µM): 54.1%
- viability, T/C (second compound 0.316 µM, first compound 1 µM): 57.5%
- viability, T/C (second compound 0.316 µM, first compound 3.16 µM): 52.8%
- viability, T/C (second compound 0.316 µM, first compound 10 µM): 36.7%
- viability, T/C [11]: 28.7%
- viability, T/C [12]: 22.2%
- viability, T/C (second compound 1 µM, first compound 0.316 µM): 22.7%
- viability, T/C (second compound 1 µM, first compound 1 µM): 26.8%
- viability, T/C (second compound 1 µM, first compound 3.16 µM): 26.5%
- viability, T/C (second compound 1 µM, first compound 10 µM): 17.1%

SMILES: Cn1cnc2c(F)c(Nc3ccc(Br)cc3Cl)c(C(=O)NOCCO)cc21 + COc1c(OCCCN2CCOCC2)ccc2c3n(c(=NC(=O)c4cnc(N)nc4)nc12)CCN3
- IC50 (second compound 0.00316 µM): > 3 µM
- IC50 (second compound 0.01 µM): 1.95 µM
- IC50 (second compound 0.0316 µM): 0.718 µM
- IC50 (second compound 0.1 µM): 0.156 µM
- IC50 (second compound 0.316 µM): 0.0114 µM
- IC50 (second compound 1 µM): < 0.00949 µM
- viability, T/C (second compound 0.00316 µM, first compound 0.00949 µM): 104%
- viability, T/C (second compound 0.00316 µM, first compound 0.03 µM): 99.9%
- viability, T/C (second compound 0.00316 µM, first compound 0.0949 µM): 92.1%
- viability, T/C (second compound 0.00316 µM, first compound 0.3 µM): 86.6%
- viability, T/C (second compound 0.00316 µM, first compound 0.949 µM): 75.6%
- viability, T/C (second compound 0.00316 µM, first compound 3 µM): 57.5%
- viability, T/C (second compound 0.01 µM, first compound 0.00949 µM): 107%
- viability, T/C (second compound 0.01 µM, first compound 0.03 µM): 101%
- viability, T/C (second compound 0.01 µM, first compound 0.0949 µM): 88.6%
- viability, T/C (second compound 0.01 µM, first compound 0.3 µM): 85.6%
- viability, T/C (second compound 0.01 µM, first compound 0.949 µM): 69%
- viability, T/C (second compound 0.01 µM, first compound 3 µM): 38.7%
- viability, T/C (second compound 0.0316 µM, first compound 0.00949 µM): 102%
- viability, T/C (second compound 0.0316 µM, first compound 0.03 µM): 93%
- viability, T/C (second compound 0.0316 µM, first compound 0.0949 µM): 81%
- viability, T/C (second compound 0.0316 µM, first compound 0.3 µM): 67.2%
- viability, T/C (second compound 0.0316 µM, first compound 0.949 µM): 45.3%
- viability, T/C (second compound 0.0316 µM, first compound 3 µM): 16%
- viability, T/C (second compound 0.1 µM, first compound 0.00949 µM): 81.5%
- viability, T/C (second compound 0.1 µM, first compound 0.03 µM): 69.3%
- viability, T/C (second compound 0.1 µM, first compound 0.0949 µM): 55.4%
- viability, T/C (second compound 0.1 µM, first compound 0.3 µM): 43.1%
- viability, T/C (second compound 0.1 µM, first compound 0.949 µM): 23.9%
- viability, T/C (second compound 0.1 µM, first compound 3 µM): 3.88%
- viability, T/C (second compound 0.316 µM, first compound 0.00949 µM): 50.8%
- viability, T/C (second compound 0.316 µM, first compound 0.03 µM): 44.9%
- viability, T/C (second compound 0.316 µM, first compound 0.0949 µM): 28.9%
- viability, T/C (second compound 0.316 µM, first compound 0.3 µM): 18%
- viability, T/C (second compound 0.316 µM, first compound 0.949 µM): 4.2%
- viability, T/C (second compound 0.316 µM, first compound 3 µM): 1.79%
- viability, T/C (second compound 1 µM, first compound 0.00949 µM): 21.7%
- viability, T/C (second compound 1 µM, first compound 0.03 µM): 17.9%
- viability, T/C (second compound 1 µM, first compound 0.0949 µM): 10.1%
- viability, T/C (second compound 1 µM, first compound 0.3 µM): 3.9%
- viability, T/C (second compound 1 µM, first compound 0.949 µM): 2.04%
- viability, T/C (second compound 1 µM, first compound 3 µM): 1.34%
